According to patent publication US20110173718A1, “HERBICIDE TOLERANT PLANTS” (SYNGENTA CROP PROTECTION, INC., priority 2008, published 2011):
Where “and” joins values, the source holds several entries; their conditions need not be identical. Equal entries are not always repeated.

Columns and labels:
Assay type in all cases: in vivo
[1] = tested on: Tobacco (var Samsun) plantlets in agar; assay: HST + HPPD herbicide effects on tobacco seedlings in agar; conditions: for % Injury, plus Mesotrione (0.004 ppm) (EXPECTED): Colby expected; for % Injury, plus Mesotrione (0.004 ppm) (EXPECTED) / % Injury, plus Mesotrione (0.004 ppm) (OBSERVED) / % Injury (bleaching), haloxydine only / % Injury (O − E): agar, 7 DAT; for % Injury (O − E): observed minus expected
Protocol: Tobacco (var Samsun) plantlets germinated aseptically in agar made up in 1/3 strength Murashige and Skoog salts medium along with various doses of herbicide. Bleaching damage to emerging plantlets is assessed 7 DAT. The plantlets are kept covered under clear perspex and grown at 18° C. (night) and 24° C. (day) under a 16 h day (˜500-900 umol/m^2), 8 h darkness regime. Herbicide affected plantlets are bleached white and grow less. Synergistic/antagonistic responses are calculated using the Colby formula (Colby, S. R. (Calculating synergistic and antagonistic responses of herbicide Combinations”, Weeds, 15, p. 20-22, 1967).

tobacco leaf explants = assay: Tobacco leaf explants plated on NBM medium with haloxydine; conditions: 1 mg/1 haloxydine
Protocol: To roughly evaluate comparative levels of ectopic HST expression independent PCR positive tobacco shoots have young leaves removed, cut into 1 cm squares and plated onto NBM medium incorporating 1 mg/1 haloxydine. These leaf explants produce callus and ultimately regenerated shoots.

[2] = tested on: Arabidopsis HST transgenic tobacco plants; assay: Glasshouse spray test, Arabidopsis HST transgenic tobacco; conditions: 25 gai/ha; D2 line (Arabidopsis HST, segregating T1), individual plants
[3] = haloxydine 0.3 ppm + mesotrione 0.004 ppm
[4] = haloxydine 0.6 ppm + mesotrione 0.004 ppm
[5] = haloxydine 1.2 ppm + mesotrione 0.004 ppm
[6] = haloxydine 2.4 ppm + mesotrione 0.004 ppm
[7] = haloxydine 4.7 ppm + mesotrione 0.004 ppm
[8] = haloxydine 9.4 ppm + mesotrione 0.004 ppm
[9] = haloxydine 18.8 ppm + mesotrione 0.004 ppm
[10] = haloxydine 37.5 ppm + mesotrione 0.004 ppm

Compound: Oc1c(Cl)c(F)nc(F)c1Cl [Compound 1.1, haloxydine]
- % Injury, plus Mesotrione (0.004 ppm) (EXPECTED) [1, 3]: 41.5%
- % Injury, plus Mesotrione (0.004 ppm) (EXPECTED) [1, 4]: 48%
- % Injury, plus Mesotrione (0.004 ppm) (EXPECTED) [1, 5]: 58%
- % Injury, plus Mesotrione (0.004 ppm) (EXPECTED) [1, 6]: 67.5%
- % Injury, plus Mesotrione (0.004 ppm) (EXPECTED) [1, 7]: 80%
- % Injury, plus Mesotrione (0.004 ppm) (EXPECTED) [1, 8]: 94%
- % Injury, plus Mesotrione (0.004 ppm) (EXPECTED) [1, 9]: 100%
- % Injury, plus Mesotrione (0.004 ppm) (EXPECTED) [1, 10]: 100%
- effect of adding a low dose of mesotrione on the herbicidal effect ([1]; agar grown tobacco plantlets): synergises
- % Injury, plus Mesotrione (0.004 ppm) (OBSERVED) [1, 3]: 50%
- % Injury (bleaching), haloxydine only ([1]; haloxydine 0.3 ppm): 10%
- % Injury, plus Mesotrione (0.004 ppm) (OBSERVED) [1, 4]: 50%
- % Injury (bleaching), haloxydine only ([1]; haloxydine 0.6 ppm): 20%
- % Injury, plus Mesotrione (0.004 ppm) (OBSERVED) [1, 5]: 70%
- % Injury (bleaching), haloxydine only ([1]; haloxydine 1.2 ppm): 35%
- % Injury, plus Mesotrione (0.004 ppm) (OBSERVED) [1, 6]: 90%
- % Injury (bleaching), haloxydine only ([1]; haloxydine 2.4 ppm): 50%
- % Injury, plus Mesotrione (0.004 ppm) (OBSERVED) [1, 7]: 100%
- % Injury (bleaching), haloxydine only ([1]; haloxydine 4.7 ppm): 70%
- % Injury, plus Mesotrione (0.004 ppm) (OBSERVED) [1, 8]: 100%
- % Injury (bleaching), haloxydine only ([1]; haloxydine 9.4 ppm): 90%
- % Injury, plus Mesotrione (0.004 ppm) (OBSERVED) [1, 9]: 100%
- % Injury (bleaching), haloxydine only ([1]; haloxydine 18.8 ppm): 100%
- % Injury, plus Mesotrione (0.004 ppm) (OBSERVED) [1, 10]: 100%
- % Injury (bleaching), haloxydine only ([1]; haloxydine 37.5 ppm): 100%
- % Injury (O − E) [1, 3]: 8.5%
- % Injury (O − E) [1, 4]: 2%
- % Injury (O − E) [1, 5]: 12%
- % Injury (O − E) [1, 6]: 22.5%
- % Injury (O − E) [1, 7]: 20%
- % Injury (O − E) [1, 8]: 6%
- % Injury (O − E) [1, 9]: 0%
- % Injury (O − E) [1, 10]: 0%
- callus and shoot regeneration (tobacco leaf explants; explants over expressing HST): green callus and shoots
- callus and shoot regeneration (tobacco leaf explants; untransformed explants or transformants with limited HST expression): bleached callus and stunted bleached shoots that ultimately died
- % damage at 7 DAT [2]: 55% (2×) and 35% and 65% (3×) and 100% and 30%
